Patent EP2698385A1, “Detection of synthetic cannabinoids” (priority 2012, dated 2014)

What was measured:
Assay type in all cases: binding, sheep
Antibody to Immunogen I = settings: Cross-reactants at 100 ng/ml; Antibody to Immunogen I
Summary of the method: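 Sheep anti-Immunogen I IgG coated on plates, then JWH-018 standards (0–40 ng/ml) competed with hapten-HRP conjugate for 1 h at 25°C. TMB read-out at 450 nm, 4-parameter fit. IC50 is the standard concentration giving 50% B/B0; cross-reactivity of related cannabinoids taken from the calibration curves.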

[1] = system: Antibody to Immunogen VIII; settings: Cross-reactants at 100 ng/ml; Antibody to Immunogen VIII
Antibody to Immunogen IV = settings: Cross-reactants at 100 ng/ml; Antibody to Immunogen IV
[2] = system: Antibody to Immunogen VII; settings: Cross-reactants at 100 ng/ml; Antibody to Immunogen VII
Antibody to Immunogen II = experiment: Competitive ELISA (Example 36), antibody RS1833B12, tracer ESC4555/LK959, standard JWH-018; settings: Cross-reactants at 100 ng/ml; Antibody to Immunogen II
Description: An aqueous solution of each immunogen was formulated with Freund's Complete Adjuvant (FCA) to form an emulsion consisting of 2mg/ml* immunogen in 50% (v/v) FCA. Three sheep were immunised with this emulsion (1° immunisation), 0.25ml being intramuscularly injected at each of four sites in the flank of each animal. Subsequent immunizations (boosts) contained 1mg/ml* immunogen. All boosts were emulsified in 50% (v/v) Freund's Incomplete Adjuvant (FIA) and were administered in the same manner as the 1° immunisation, at monthly intervals. Blood sampling took place 7 to 14 days after each boost. *The general procedure for immunogen administration is outlined above, however, it was necessary to deviate from this protocol in some cases, due to reduced immunogen concentrations (Immunogens II, IV, VII and VIII) and/or amount available (Immunogen VIII). Any deviations from the protocol described are outlined in Table 1A below and highlighted in bold. Table 1A: Amount and volume of immunogens administered for primary and subsequent boosts
The appropriate antibody coating dilution was determined using standard ELISA checkerboard techniques. The plate was incubated overnight at 4°C, washed 4 times over 10 minutes with Tris buffered saline containing Tween 20 (TBST) and tapped dry. […] 75µl of conjugate (appropriate hapten-HRP) diluted in Tris buffer (pH 7.2) containing EDTA, D-mannitol, sucrose, thimerosal and BSA, was added to each of the wells. The appropriate dilution of conjugate was also determined using standard ELISA checkerboard techniques. The plate was incubated at 25°C for 1 hour. Excess unbound conjugate was removed by washing 6 times over a 10 minute period with TBST. 125µl of tetramethylbenzidine (TMB) substrate solution was added to each well of the plate that was then incubated for 20 minutes in the dark at room temperature. The reaction was terminated by addition of 125µl 0.2M H2SO4 to each well. The absorbance was then measured at 450nm using a microtiter plate reader. The data are inputted to a computer program called 'KC Junior'. It is a 4 parameter fit curve and allow the calculatation of concentrations between the standard runs.
In a similar manner to that described above, the wells of a 96-well microtiter plate were coated with the IgG fraction of the antiserum raised to Immunogens I or II.
The data set our in Tables 3 and 4 are generated using antibodies raised against the indicated Immunogens in a competitive binding assay with the indicated tracers, using the indicated standards: Table 2
Using the calibration curves generated and employing a single level of cross reactants, these were used to determine the cross-reactivity of each immunoassay with these substances. These are the standards used for the IC50 and cross-reactivity data generation • Immunogen I - JWH-018 • Immunogen II - JWH-018 • Immunogen IV - JWH-018 • Immunogen VII - JWH-015 • Immunogen VIII - JWH-018 Table 4: Cross reactivity of the competitive ELISAs for synthetic cannabinoids and their metabolites

| Compound | %B/B0 (Antibody to Immunogen I) | %B/B0 [1] | %B/B0 (Antibody to Immunogen IV) | %B/B0 [2] | %B/B0 (Antibody to Immunogen II) |
| --- | --- | --- | --- | --- | --- |
| CCCCCn1cc(C(=O)c2cccc3ccccc23)c2ccc(OC)cc21 [JWH-018 6-methoxyindole analogue] | 10.55% | 77.22% | 90.65% | 72.33% | 20.44% |
| CCCCCn1cc(C(=O)c2cccc3ccccc23)c2cccc(O)c21 [JWH-018 7-hydroxyindole metabolite] | 6.72% | 94.46% | 93.31% | 68.53% | 34.79% |
| CC(C)(C)Cn1cc(C(=O)c2cccc3ccccc23)c2ccccc21 [JWH-018 N-(2,2-dimethylpropyl) isomer] | 3.89% | 95.09% | 80.42% | 52.46% | 60.15% |
| CCCCCCn1cc(C(=O)c2cccc3ccccc23)c2ccccc21 [JWH-019] | 7.22% | 74.50% | 21.96% | 70.05% | 15.42% |
| CCCCCCCn1cc(C(=O)c2cccc3ccccc23)c2ccccc21 [JWH-020] | 16.03% | 100.73% | 73.73% | 81.30% | 35.75% |
| C=CCCCn1cc(C(=O)c2cccc3ccccc23)c2ccccc21 [JWH-022] | 4.51% | 28.94% | 10.61% | 58.44% | 11.72% |
| CCCCn1cc(C(=O)c2cccc3ccccc23)c2c(O)cccc21 [JWH-073 4-hydroxyindole metabolite] | 39.50% | 26.23% | 28.69% | 82.82% | 40.14% |
| CCCCn1cc(C(=O)c2cccc3ccccc23)c2cc(O)ccc21 [JWH-073 5-hydroxyindole metabolite] | 7.34% | 90.70% | 84.06% | 75.11% | 20.73% |
| CCCCn1cc(C(=O)c2cccc3ccccc23)c2ccc(O)cc21 [JWH-073 6-hydroxyindole metabolite] | 5.93% | 93.52% | 74.89% | 61.83% | 28.03% |
| CCCCn1cc(C(=O)c2cccc3ccccc23)c2cccc(O)c21 [JWH-073 7-hydroxyindole metabolite] | 5.59% | 94.04% | 96.95% | 61.78% | 46.05% |
| CC(O)CCn1cc(C(=O)c2cccc3ccccc23)c2ccccc21 (centres unmarked) [JWH-073 N-(3-hydroxybutyl) metabolite] | 3.10% | 94.04% | 53.52% | 43.39% | 54.52% |
| O=C(c1cccc2ccccc12)c1cn(CCCCO)c2ccccc12 [JWH-073 N-(4-hydroxybutyl) metabolite] | 3.22% | 57.99% | 52.61% | 48.81% | 60.01% |
| O=C(O)CCCn1cc(C(=O)c2cccc3ccccc23)c2ccccc21 [JWH-073 N-butanoic acid metabolite] | 6.88% | 94.98% | 98.95% | 60.01% | 92.20% |
| CCCCCn1cc(C(=O)c2cccc3c(OC)cccc23)c2ccccc21 [JWH-081 5-methoxynaphthyl isomer] | 18.51% | 26.56% | 6.24% | 94.16% | 60.90% |
| Cc1ccc(C(=O)c2cn(CCCCCO)c3ccccc23)c2ccccc12 [JWH-122 N-(5-hydroxypentyl) metabolite] | 42.80% | 48.67% | 25.72% | 83.65% | 71.76% |
| CCCCCn1cc(C(=O)c2ccc(C)c3ccccc23)c2ccccc21 [JWH-122] | 62.98% | 14.43% | 3.94% | 89.37% | 44.55% |
| O=C(c1cccc2ccccc12)c1cn(CCN2CCOCC2)c2cccc(O)c12 [JWH-200 4-hydroxyindole metabolite] | 44.97% | 91.82% | 87.88% | 91.15% | 78.17% |
| O=C(c1cccc2ccccc12)c1cn(CCN2CCOCC2)c2ccc(O)cc12 [JWH-200 5-hydroxyindole metabolite] | 12.61% | 90.88% | 97.53% | 82.42% | 64.99% |
| O=C(c1cccc2ccccc12)c1cn(CCN2CCOCC2)c2cc(O)ccc12 [JWH-200 6-hydroxyindole metabolite] | 7.27% | 83.20% | 94.41% | 65.52% | 61.65% |
| CCCCCn1cc(C(=O)c2cccc3c(Cl)cccc23)c2ccccc21 [JWH-398 5-chloronaphthyl isomer] | 35.53% | 19.67% | 7.06% | 91.33% | 23.50% |
| O=C(c1ccc(Cl)c2ccccc12)c1cn(CCCCCO)c2ccccc12 [JWH-398 N-(5-hydroxypentyl) metabolite] | 48.07% | 51.33% | 22.01% | 82.97% | 67.49% |
| CCCCCn1cc(C(=O)c2ccccc2OC)c2ccccc21 [RCS-4 2-methoxy isomer] | 29.14% | 29.32% | 15.28% | 87.27% | 42.74% |
